{"source": "patent US7544773B2", "about": "(priority 2003, dated 2009)", "target": "Dr hemagglutinin (Escherichia coli, UniProt P24093)", "sequence (P24093 22-160)": "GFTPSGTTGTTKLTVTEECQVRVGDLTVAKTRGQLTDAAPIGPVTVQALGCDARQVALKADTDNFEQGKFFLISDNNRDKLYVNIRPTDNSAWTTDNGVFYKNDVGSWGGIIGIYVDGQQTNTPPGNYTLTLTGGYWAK", "assay_type": "cell-based, E. coli"}
{"substance": "TTGTTKL", "values": [{"measurement": "polymerisation of Dr hemagglutinin judged by hemaglutination assay", "value": "completely abolished"}]}
